Consider five molecules from patent US10906929B2, “Phosphoramidate nucleoside derivatives as anticancer agents” (NuCana plc, priority 2016, dated 2021).

In assay [1] the test system is MCF-7 Mammary epithelial adenocarcinoma. In words: In vitro viability assay, CellTiterGlo. Format: cell-based, human. The following applies: for EC50: Homo sapiens, MCF7, 72 h, read-out: EC50 (μM) Ab; for Top Inhibition (%): MCF-7, CellTiterGlo, 72 h. Here is the method:
(§1) In vitro viability assay was performed to assess the effects of compounds on cell viability in selected cell lines over 72 h using the CellTiterGlo (CTG, Promega-G7573) assay. The tests were performed in duplicates with treatment of compounds at 9 points, 3.16 folds titration in 96 well plates over ˜72 h. The compound starting concentrations were […]. Cell viability assay using CellTiterGlo in 96-well plate were performed. Compounds were dissolved to 40 mM with thawed 100% DMSO. Compounds were serially diluted at 3.16-fold in thawed DMSO, and warmed to 37° C. before being dissolved in media (2 μl+200 μl). After compounds were dissolved in media, media containing compounds were warmed to 37° C. in incubator and then compounds in media were added to cell plates (50 μl+50 μl) in duplicates. The compounds' final concentrations were from 198 μM to 19.9 nM. Solubility of all compounds was checked and recorded again, then the plates were transferred to CO2 tissue culture incubator immediately and incubated for 3 days. DMSO final concentration is 0.5%.
(ATP-based viability assays read luminescence as a measure of living cells.)

Assay [2] deals with RL Non-Hodgkin's lymphoma. In words: In vitro viability assay, CellTiterGlo. Format: cell-based. The following applies: 72 h; for Top Inhibition (%): CellTiterGlo; for EC50: Homo sapiens, read-out: EC50 (μM) Ab. How it is done: as §1
Assay [3] has as its system HEL92.1.7 Erythroleukaemia. In words: In vitro viability assay, CellTiterGlo. The settings on record: for Top Inhibition (%): HEL92.1.7, CellTiterGlo, 72 h; for EC50: Homo sapiens, HEL 92.1.7, 72 h, read-out: EC50 (μM) Ab. Format: cell-based. Here is the method: as §1
In assay [4] the test system is Z-138 Mantle cell lymphoma. The experiment in a line: In vitro viability assay, CellTiterGlo. The class given is cell-based. The settings on record: for EC50: Homo sapiens, Z-138, 72 h, read-out: EC50 (μM) Ab; for Top Inhibition (%): Z-138, CellTiterGlo, 72 h. How it is done: as §1
Assay [5] concerns KG-1 Acute myelogenous leukaemia. In words: In vitro viability assay, CellTiterGlo. The settings on record: for EC50: Homo sapiens, KG-1, 72 h, read-out: EC50 (μM) Ab; for Top Inhibition (%): KG-1, CellTiterGlo, 72 h. The class given is cell-based. How it is done: as §1
Assay [6] deals with HL-60 Promyelocytic leukaemia. In words: In vitro viability assay, CellTiterGlo. The class given is cell-based. The settings on record: for Top Inhibition (%): HL-60, CellTiterGlo, 72 h; for EC50: Homo sapiens, HL-60, 72 h, read-out: EC50 (μM) Ab. Here is the method:
as §1

The test system of the next assay is NB4. The experiment in a line: In vitro cytotoxicity, MTS assay. The class given is cell-based. The following applies: Homo sapiens, NB-4, 72 h, read-out: Inhibitory concentration (IC50) NB4. Here is the method: (§2) Cladribine phosphoramidate derivatives were evaluated against six leukaemic cell lines (KG1, U937, K562, NB4R2, NB4 and HL-60) in vitro. Inhibitory concentration (IC50) at which 50% of the cells were no longer viable (calculated using MTS assay) was determined. Cells were treated with Cladribine and its 3′-phosphoramidate derivatives at concentrations between 100 μM and 0.02 μM by serial dilutions and incubated for 72 h at 37° C., 5% CO2 in a final volume of 90 μL. Twenty microliters of MTS reagent (Promega UK Ltd, Southampton, Hants) was added to the tumour cell cultures and reaction incubated for a further 4 h at 37° C., 5% CO2. The absorbance of the reaction after this time was read by spectrophotometry at 490 nm and the percentage of viable cells calculated relative to untreated control cells in the same assay.

The subject of another assay is HL-60. The experiment in a line: In vitro cytotoxicity, MTS assay. The settings on record: Homo sapiens, 72 h, read-out: Inhibitory concentration (IC50) HL-60. Format: cell-based. Here is the method: as §2
(Tetrazolium dyes change colour on reduction, which living cells bring about.)

For the next assay, the system named is KG1. The experiment in a line: In vitro cytotoxicity, MTS assay. The class given is cell-based. The settings on record: Homo sapiens, KG-1, 72 h, read-out: Inhibitory concentration (IC50) KG1. How it is done: as §2
For a further assay, the system named is NB4R2. In words: In vitro cytotoxicity, MTS assay. Format: cell-based. The settings on record: 72 h, read-out: Inhibitory concentration (IC50) NB4R2. How it is done:
as §2

Another assay deals with U937. In words: In vitro cytotoxicity, MTS assay. Format: cell-based. The following applies: Homo sapiens, U-937, 72 h, read-out: Inhibitory concentration (IC50) U937. How it is done:
as §2

The subject of the next assay is K562. In words: In vitro cytotoxicity, MTS assay. The settings on record: Homo sapiens, 72 h, read-out: Inhibitory concentration (IC50) K562. The class given is cell-based. How it is done: as §2
Assay [7] has as its system leukaemic stem cell compartment (Lin-/CD34+/CD38-/CD123+) within the KG1a cell line. The experiment in a line: Immunophenotypic identification of the leukaemic stem cell compartment. The class given is cell-based. The following applies: for Stem cell %: 72 h, LSC phenotype as percentage of all viable cells left, Control: 4%. How it is done: A further comparative analysis of the toxicity of compounds in the KG1a cell line over an extended dose range was carried out, and the relative effect assessed of the compounds on the leukaemic stem cell compartment within the KG1a cell line, across the entire dose range. Thus, experimental tests were performed on certain compounds of the present invention to assess their ability to target cancer stem cells in a leukaemic cell line. The acute myeloid leukaemia (AML) cell line, KG1a, was employed to assess the relative effect of compounds on the stem cell compartment. The KG1a cell line was selected because it manifests a minor stem cell-like compartment with a distinct immunophenotype (Lin^−/CD34^+/CD38^−/CD123^+).
(§3) Cells of the KG1a cell line were maintained in RPMI medium (Invitrogen, Paisley, UK) supplemented with 100 units/ml penicillin, 100 μg/ml streptomycin and 20% foetal calf serum. Cells were subsequently aliquoted (10^5 cells/100 μl) into 96-well plates and were incubated at 37° C. in a humidified 5% carbon dioxide atmosphere for 72 h in the presence of nucleoside analogues and their respective phosphoramidates at concentrations that were experimentally determined for each series of compounds. In addition, control cultures were carried out to which no drug was added. Cells were subsequently harvested by centrifugation and were analyzed by flow cytometry using the Annexin V assay.
KG1a cells were cultured for 72 h in the presence of a wide range of concentrations of each compound assayed. Cells were then harvested and labelled with a cocktail of anti-lineage antibodies (PE-cy7), anti-CD34 (FITC), anti-CD38 (PE) and anti-CD123 (PERCP cy5). The sub-population expressing a leukaemic stem cell (LSC) phenotype were subsequently identified and were expressed as a percentage of all viable cells left in the culture. […]

Another assay deals with KG1a cell line. In words: Annexin V/propidium iodide apoptosis assay. The following applies: 72 h, dose required to kill 50% of the cells. Format: cell-based. How it is done: as §3
Measurement of in vitro apoptosis. Cultured cells were harvested by centrifugation and then resuspended in 195 μl of calcium-rich buffer. Subsequently, 5 μl of Annexin V (Caltag Medsystems, Botolph Claydon, UK) was added to the cell suspension and cells were incubated in the dark for 10 mins prior to washing. Cells were finally resuspended in 190 μl of calcium-rich buffer together with 10 μl of propidium iodide. Apoptosis was assessed by dual-colour immunofluorescent flow cytometry as described previously. Subsequently LD50 values (the dose required to kill 50% of the cells in a culture) were calculated for each nucleoside analogue and phosphoramidate.
The data obtained in these experiments were evaluated using one way ANOVA. All data was confirmed as Gaussian or a Gaussian approximation using the omnibus K2 test. LD50 values were calculated from the non-linear regression and line of best-fit analysis of the sigmoidal dose-response curves. All statistical analyses were performed using Graphpad Prism 6.0 software (Graphpad Software Inc., San Diego, Calif.).

The next assay relates to MCF7. The experiment in a line: Cytostatic activity, cell counting (Coulter counter). Format: cell-based. The settings on record: Homo sapiens, MCF7, 72 h, read-out: IC50 MCF7. The text has this: (§4) Tumor cell cultures were infected with M. hyorhinis (ATCC 17981) and after two or more passages (to avoid bias by the initial inoculum) successful infection was confirmed using the MycoAlert™ mycoplasma detection kit (Lonza, Basel, Switzerland). Although this assay is only semi-quantitative, a maximal infection was observed 3 to 4 days after subcultivation of the mycoplasma-exposed cells. Chronically infected tumor cell lines are further referred to as Cell line.Hyor. All tumor cell cultures were maintained in Dulbecco's modified Eagle's medium (DMEM) (Invitrogen) supplemented with 10% fetal bovine serum (Biochrom AG, Berlin, Germany), 10 mm HEPES, and 1 mm sodium pyruvate (Invitrogen). Cells were grown at 37° C. in a humidified incubator with a gas phase containing 5% CO2.
(§5) The cytostatic activity of the test compounds was examined in mycoplasma-infected and uninfected cancer cell lines. When assaying the effect of M. hyorhinis infection, monolayer MCF7 and MCF7.Hyor cells were seeded in 48-well microtiter plates (Nunc™, Roskilde, Denmark) at 10,000 cells/well (Corning Inc., Corning, N.Y.) […]. After 24 h, the cells were exposed to different concentrations of test compound and allowed to proliferate for 72 h (to ensure sufficient cell proliferation and mycoplasma growth) after which the cells were trypsinized and counted using a Coulter counter (Analis, Suarlée, Belgium). Suspension cells (L1210, L1210.Hyor, FM3A, and FM3A.Hyor) were seeded in 96-well microtiter plates (Nunc) at 60,000 cells/well in the presence of different concentrations of test compound. The cells were allowed to proliferate for 48 h and then counted using a Coulter counter. The 50% inhibitory concentration (IC50) was defined as the compound concentration required to reduce cell proliferation by 50%.

Assay [8] has as its system MCF7 cells infected with Mycoplasma hyorhnis (HYOR). In words: Cytostatic activity in mycoplasma-infected cells. The following applies: for IC50: Homo sapiens, MCF7, 72 h, read-out: IC50 MCF7/HYOR; for Loss of potency: MCF7/HYOR versus MCF7. Format: cell-based, human.
Description: as §4, §5

Some results are limits rather than exact numbers.

Consider `C[C@H](NP(=O)(Oc1ccccc1)OC1C[C@H](n2cnc3c(N)nc(Cl)nc32)O[C@@H]1CO)C(=O)OC1CCCCC1` (stereo partly drawn) [Compound 9, 2-Chloro-2′-deoxyadenosine-3′-[phenyl-(cyclohexoxy-L-alaninyl)] phosphate], for which the EC50 (as a rule, the concentration needed to bring the measured effect to its halfway point) in assay [1] came out at 21 µM; in assay [2], 0.14 µM; in [3], 0.044 µM; in assay [4], 0.051 µM; in assay [5], 0.8 µM; in assay [6] it was 0.13 µM. Moreover, the “Top Inhibition (%)” value in assay [1] is given as 100%; in assay [2], 89.9%; in assay [3], 97.2%; in [4], 99.9%; in assay [5], 96.9%; in assay [6] it was 87.7%.
Take `C[C@H](NP(=O)(Oc1ccccc1)OC1C[C@H](n2cnc3c(N)nc(Cl)nc32)O[C@@H]1CO)C(=O)OCC(C)(C)C` (stereo partly drawn) [Compound 10, 2-Chloro-2′-deoxyadenosine-3′-[phenyl-(2,2-dimethylpropoxy-L-alaninyl)] phosphate]: the IC50 was more than 10000 nM in the assay with NB4 and 5300 nM in the assay with HL-60. Also, the EC50 in [1] was found to be 22 µM; in assay [2], 0.15 µM; in assay [3], 0.042 µM; in assay [4] it was 0.047 µM; in assay [5], 0.6 µM; in assay [6], 0.12 µM. Moreover, the “Top Inhibition (%)” value was determined as 99.2% in assay [1]; 89.8% in assay [2]; 97.2% in [3]; 100% in [4]; 95% in assay [5]; 87.7% in [6].
`C[C@H](NP(=O)(Oc1cccc2ccccc12)OC1C[C@H](n2cnc3c(N)nc(Cl)nc32)O[C@@H]1CO)C(=O)OCc1ccccc1` (some centres unmarked) [Compound 18]: the IC50 is 310 nM in the assay on KG1; 1290 nM in the assay with NB4R2; 70 nM in the assay with NB4; 10 nM with U937; 390 nM with HL-60; 5140 nM in the assay with K562. Also, in assay [7], the stem cell selectivity entry was “exhibited stem cell selectivity”. In addition, the “targeting of LSCs when compared to cladribine” value in assay [7] is on record as “showed preferential targeting of LSCs”. Further, the Stem cell % in assay [7] is on record as 4%. In the assay on KG1a cell line, this molecule showed an LD50 of 0.27 μm.
With `C[C@H](NP(=O)(Oc1ccccc1)OC1C[C@H](n2cnc3c(N)nc(Cl)nc32)O[C@@H]1CO)C(=O)OCc1ccccc1` (some centres unmarked) [Compound 19], the IC50 with KG1 is 380 nM; in the assay with NB4R2, 110 nM; with NB4 it was 240 nM; in the assay on U937, 30 nM; with HL-60, 100 nM; with K562, more than 10000 nM. Moreover, the IC50 with MCF7 was 5200 nM; in assay [8] it was 26000 nM. For the same molecule, in assay [7], the stem cell selectivity entry is listed as “exhibited stem cell selectivity”. This molecule returned a Stem cell % in assay [7] of 3.1%. Also, in the assay on KG1a cell line, the LD50 is given as 0.83 μm. For the same molecule, the Loss of potency in assay [8] is reported as 5-fold.
As to `C[C@H](NP(=O)(OC[C@H]1O[C@@H](n2cnc3c(N)nc(Cl)nc32)CC1O)Oc1ccccc1)C(=O)OCc1ccccc1` (some centres unmarked) [Y, reference compound], the IC50 in the assay on KG1 is 670 nM; in the assay on NB4R2 it was 630 nM; in the assay on NB4 it was 230 nM; with U937, 80 nM; in the assay on HL-60, 1750 nM; in the assay on K562, 8050 nM. In addition, the IC50 with MCF7 came out at 2100 nM; in assay [8], 33000 nM. Moreover, the Stem cell % in [7] was found to be 2%. In the assay with KG1a cell line, this molecule showed an LD50 of 1.7 μm. Besides, the Loss of potency in assay [8] is recorded as 16-fold.
